Results reported in ChEMBL document CHEMBL4482310, “Inhibitors of grb2-associated binding protein 1 (gab1) and methods of treating cancer using the same” (2017).

Assays:
[1] = molecular target: T1, Insulin receptor substrate 1 (Homo sapiens) (UniProt P35568); assay: Inhibition of HGF-induced IRS1 phosphorylation in human T47D cells assessed as pSer312 IRS1/total-IRS1 ratio level at 20 uM pre-incubated for 4 hrs before stimulation with HGF for 20 mins (reference value: 100 +/- 0.02%); type: cell-based; parameters: scale not given: the % may be the effect or the level left
T1 sequence (whole entry): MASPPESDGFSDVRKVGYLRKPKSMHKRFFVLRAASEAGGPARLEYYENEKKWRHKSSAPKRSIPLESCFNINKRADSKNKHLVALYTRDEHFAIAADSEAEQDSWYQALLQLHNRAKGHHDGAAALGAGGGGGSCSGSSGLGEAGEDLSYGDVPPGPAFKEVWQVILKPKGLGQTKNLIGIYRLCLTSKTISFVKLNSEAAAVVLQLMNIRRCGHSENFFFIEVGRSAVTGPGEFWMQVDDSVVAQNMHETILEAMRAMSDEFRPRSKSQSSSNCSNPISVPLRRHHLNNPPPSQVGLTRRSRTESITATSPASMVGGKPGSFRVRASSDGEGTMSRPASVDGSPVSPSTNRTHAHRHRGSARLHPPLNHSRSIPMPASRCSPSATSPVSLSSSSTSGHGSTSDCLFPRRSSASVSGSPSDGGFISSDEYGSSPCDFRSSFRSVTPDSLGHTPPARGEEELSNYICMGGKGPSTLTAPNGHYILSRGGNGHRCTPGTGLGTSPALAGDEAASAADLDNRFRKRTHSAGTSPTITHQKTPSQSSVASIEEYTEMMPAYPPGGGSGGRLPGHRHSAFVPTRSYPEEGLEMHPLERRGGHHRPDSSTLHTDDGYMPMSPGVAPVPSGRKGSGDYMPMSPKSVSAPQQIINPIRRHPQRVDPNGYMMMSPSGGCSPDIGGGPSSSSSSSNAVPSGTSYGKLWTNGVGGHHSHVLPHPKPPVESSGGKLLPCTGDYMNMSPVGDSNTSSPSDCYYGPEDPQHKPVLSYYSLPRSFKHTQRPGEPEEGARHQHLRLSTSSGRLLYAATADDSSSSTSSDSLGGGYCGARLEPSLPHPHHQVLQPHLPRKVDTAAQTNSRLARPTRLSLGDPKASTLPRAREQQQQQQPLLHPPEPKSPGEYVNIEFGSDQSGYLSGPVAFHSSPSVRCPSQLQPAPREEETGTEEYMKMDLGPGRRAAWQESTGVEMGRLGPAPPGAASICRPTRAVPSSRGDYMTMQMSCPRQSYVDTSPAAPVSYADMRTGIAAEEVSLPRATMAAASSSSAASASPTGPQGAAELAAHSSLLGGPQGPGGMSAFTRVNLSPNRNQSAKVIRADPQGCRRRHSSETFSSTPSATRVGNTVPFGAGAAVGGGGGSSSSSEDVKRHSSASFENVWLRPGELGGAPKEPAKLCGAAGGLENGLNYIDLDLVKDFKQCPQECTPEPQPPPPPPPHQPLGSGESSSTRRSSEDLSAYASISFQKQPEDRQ

[2] = molecular target: T2, Insulin receptor substrate 1 (Homo sapiens, UniProt P35568); assay: Binding affinity to recombinant human IRS1 PH domain expressed in Escherichia coli BL21 (DE3) by surface plasmon resonance assay
T2 sequence (P35568 whole entry): T1 sequence (whole entry)

[3] = molecular target: T3, GRB2-associated-binding protein 1 (Homo sapiens, UniProt Q13480); assay: Binding affinity to recombinant human GAB1 PH domain expressed in Escherichia coli BL21 (DE3) by surface plasmon resonance assay
T3 sequence (Q13480 whole entry): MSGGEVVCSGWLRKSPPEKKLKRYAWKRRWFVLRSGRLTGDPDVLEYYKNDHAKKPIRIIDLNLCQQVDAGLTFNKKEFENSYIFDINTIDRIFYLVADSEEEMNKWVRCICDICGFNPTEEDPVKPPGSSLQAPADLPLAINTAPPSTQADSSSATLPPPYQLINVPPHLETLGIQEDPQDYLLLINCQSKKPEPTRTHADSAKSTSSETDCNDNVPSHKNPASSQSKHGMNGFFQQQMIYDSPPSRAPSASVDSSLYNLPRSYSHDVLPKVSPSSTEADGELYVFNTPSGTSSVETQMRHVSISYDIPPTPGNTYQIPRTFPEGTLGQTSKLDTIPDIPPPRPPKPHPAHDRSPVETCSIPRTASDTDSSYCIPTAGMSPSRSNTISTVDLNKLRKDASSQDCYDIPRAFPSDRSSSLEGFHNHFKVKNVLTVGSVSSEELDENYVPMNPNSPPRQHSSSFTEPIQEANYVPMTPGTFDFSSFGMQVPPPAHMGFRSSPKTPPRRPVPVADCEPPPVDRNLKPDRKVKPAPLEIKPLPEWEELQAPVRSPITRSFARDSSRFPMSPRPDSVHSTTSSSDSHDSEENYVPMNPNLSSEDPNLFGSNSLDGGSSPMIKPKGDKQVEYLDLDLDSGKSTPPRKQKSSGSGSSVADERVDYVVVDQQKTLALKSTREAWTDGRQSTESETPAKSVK

[4] = test system: MDA-MB-231; assay: Cytotoxicity in human MDA-MB-231 cells assessed as reduction in cell viability incubated for 4 days by MTT assay; type: functional, cell-based
[5] = test system: T47D; assay: Cytotoxicity in human T47D cells assessed as reduction in cell viability incubated for 4 days by MTT assay; type: functional, cell-based
[6] = molecular target: T4, GRB2-associated-binding protein 1 (Homo sapiens) (UniProt Q13480); assay: Inhibition of HGF-stimulated GAB1 Y627 phosphorylation in human T47D cells at 20 uM pre-incubated for 4 hrs before stimulation with HGF for 20 mins; type: cell-based
T4 sequence (whole entry): T3 sequence (Q13480 whole entry)

[7] = test system: MCF-10A; assay: Cytotoxicity in human MCF10A cells assessed as reduction in cell viability incubated for 4 days by MTT assay; type: cell-based; settings: 96 h
[8] = test system: MCF-10A; assay: Cytotoxicity in human MCF10A cells assessed as reduction in cell viability at 100 uM incubated for 4 days by MTT assay; type: cell-based; settings: 96 h

Row | Activity [1] | Kd [2] | Kd [3] | Kd ([2]; read-out: Kd) | SMILES | further results
1 | 98.2% | Not Active | Not Active |  | Cc1cc2ncc(-c3cnc(SCCS(=O)(=O)c4ccc(Cl)cc4)nc3)c(C)n2n1 | 
2 | 101% |  | Not Active | 16.2 µM | O=S(=O)(NCc1csc(-c2cccs2)n1)c1ccc(N2CCOCC2)nc1 | IC50 [4]: Not Active
3 | 102% | Not Active | Not Active |  | CS(=O)(=NS(=O)(=O)c1ccc(-c2ccccn2)s1)c1ccc(Cl)cc1 (stereo unspecified) | IC50 [5]: Not Active; IC50 [4]: Not Active
4 | 89.9% | Not Active | Not Active |  | Cc1nnc(NS(=O)(=O)c2ccc(NS(=O)(=O)c3ccc4ccccc4c3)cc2)s1 | 
5 | 78.4% |  |  | 0.05 µM | CCCCCCCCCCCCc1ccc(S(=O)(=O)Nc2nnc(C(=O)OCC)s2)cc1 | inhibition [6]: 82%; Kd ([3]; read-out: Kd): 0.68 µM; Activity [7]: Non-Toxic
6 | 115% | Not Active |  |  | CCCCCCCCCCCCc1ccc(S(=O)(=O)Nc2nnc(S(N)(=O)=O)s2)cc1 | 
7 | 84.8% | Not Active | Not Active |  | Cn1c(Cc2ccsc2)nnc1SCC(=O)Nc1cc(Cl)cc(Cl)c1 | IC50 [5]: Not Active; IC50 [4]: Not Active
8 | 60.6% |  |  | 0.15 µM | CCCCCCCCCCCCc1ccc(S(=O)(=O)Nc2nnc(CC(=O)OCC)s2)cc1 | inhibition [6]: 96%; Kd ([3]; read-out: Kd): 0.9 µM; Activity [7]: Non-Toxic
9 | 116% |  |  |  | CCCCCCCCCCCCCCCCCCOC[C@H](COP(=O)(O)O[C@H]1[C@H](O)[C@@H](O)[C@H](O)C[C@H]1O)OC | inhibition [6]: 72%
10 | 75.6% | Not Active | Not Active |  | O=C(O)c1ccccc1C(=O)Nc1ccccc1SCCS(=O)(=O)c1ccc(Cl)cc1 | Activity [8]: Non-Toxic; IC50 [4]: Not Active
11 | 64.4% |  |  |  | CCc1ccc(C(=O)OC)cc1CSc1nnc(-c2ccc(C(F)(F)F)cc2)n1Cc1ccoc1 | 
12 | 79.7% |  |  | 1.6 µM | CS(=O)(=O)CCSc1ncccc1C(=O)Sc1ccc(Cl)cc1Cl | Kd ([3]; read-out: Kd): 42.3 µM; Activity [7]: Non-Toxic
13 | 100% | Not Active | Not Active |  | Cc1noc(C)c1NC(=O)NCc1csc(-c2cccs2)n1 | 
14 | 98.7% |  |  |  | Cc1nc(-c2ccc(S(=O)(=O)N3CCN(C4c5ccccc5-c5ccccc54)CC3)s2)cs1 | 
15 | 69% |  |  | 0.05 µM | CCCCCCCCCCCCc1ccc(S(=O)(=O)Nc2nnc(CC(=O)O)s2)cc1 | 
16 | 91.7% | Not Active | Not Active |  | COc1cc(NS(=O)(=O)c2ccc(NS(=O)(=O)c3c(C)noc3C)cc2)nc(OC)n1 | Activity [8]: Non-Toxic; IC50 [5]: Not Active; IC50 [4]: Not Active
17 | 83.2% |  |  | 16.4 µM | Cn1cnc(S(=O)(=O)Nc2ccccc2SCCS(=O)(=O)c2ccc(Cl)cc2)c1 | Kd ([3]; read-out: Kd): 2.1 µM
18 | 31.1% |  | Not Active | 0.12 µM | Cc1onc(-c2ccccc2)c1-c1nc(CSc2nc3ccccc3[nH]2)no1 | 
19 | 46.5% | Not Active |  |  | O=S(=O)(NCc1csc2ccc(Cl)cc12)c1cc(S(=O)(=O)c2ccccc2)cs1 | Activity [7]: Non-Toxic
20 | 40.7% | Not Active |  |  | O=c1[nH]nc(SCc2csc(-c3ccccc3)n2)n1Cc1ccco1 | Kd ([3]; read-out: Kd): 2.2 µM; Activity [7]: Non-Toxic

Row | SMILES | Activity [1] | Kd [2] | Kd [3] | Kd ([2]; read-out: Kd) | further results
21 | CCCCCCCCCCCCc1ccc(S(=O)(=O)Nc2nncs2)cc1 | 61.3% |  |  |  | Kd ([3]; read-out: Kd): 1.33 µM
